Tested on: NZB×NZW F1 mice
Experiment: mIL-2/CD25 and prednisolone combination in NZB×NZW mice
Format: in vivo, mouse
Description: The effect of mIL-2/CD25 on Tregs was also assessed in the spleen at completion of this study (after 14 weeks of treatment).
At completion of study, one kidney from each mouse was collected in RNA Later and then homogenized in mRNA Catcher Lysis Buffer with a Tissue Lyser. mRNA was purified using mRNA Catcher PLUS according to the manufacturer's protocol (Invitrogen). cDNA was synthesized using SuperScript II with random hexamer primers. PCR was performed with SYBR Green Master Mix (Invitrogen). Relative quantification analysis was determined using the 2-ΔΔCT method using cyclophilin (PPIA) as the housekeeping gene. Expression of inflammatory cytokine and leukocyte surface receptors were analyzed.

C[C@]12C=CC(=O)C=C1CC[C@@H]1[C@@H]2[C@@H](O)C[C@@]2(C)[C@H]1CC[C@]2(O)C(=O)CO [prednisolone, Prednisolone]
percentage of Tregs and CD25 MFI on Tregs in the spleen (after 14 weeks of treatment): did not alter | proteinuria levels and anti-dsDNA titers (prednisolone 1 mg/kg p.o. 3×/week, mIL-2/CD25 0.1 mg/kg s.c. 2×/week, or both, 14 weeks): partial protection
